Read-outs that look alike come from different tables or passages of the source.
Target: CFTR (Homo sapiens, UniProt P13569)
Experiment: Membrane potential dye, Enteroid Assay A
Assay type: cell-based
Conditions: for Ent. A Max Activity: chloride transport as % of triple combination control (Enteroid Assay A); for EC50: human enteroid cells, 18-24 hours, acute 10 μM forskolin and 300 nM ivacaftor, read-out: Ent. A EC50
Method in brief: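 Human intestinal enteroids incubated 18-24 h at 37 °C with test compound, then loaded with 20 μM methyl oxonol (with CaCC inhibitors). Chloride transport triggered in chloride-free buffer with 10 μM forskolin, 100 μM IBMX, 300 nM Compound III; fluorescence read 15 min, expressed as % of a triple-combination corrector/potentiator control.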

Sequence of CFTR (P13569 with tags, fused parts or gaps DEL508-508): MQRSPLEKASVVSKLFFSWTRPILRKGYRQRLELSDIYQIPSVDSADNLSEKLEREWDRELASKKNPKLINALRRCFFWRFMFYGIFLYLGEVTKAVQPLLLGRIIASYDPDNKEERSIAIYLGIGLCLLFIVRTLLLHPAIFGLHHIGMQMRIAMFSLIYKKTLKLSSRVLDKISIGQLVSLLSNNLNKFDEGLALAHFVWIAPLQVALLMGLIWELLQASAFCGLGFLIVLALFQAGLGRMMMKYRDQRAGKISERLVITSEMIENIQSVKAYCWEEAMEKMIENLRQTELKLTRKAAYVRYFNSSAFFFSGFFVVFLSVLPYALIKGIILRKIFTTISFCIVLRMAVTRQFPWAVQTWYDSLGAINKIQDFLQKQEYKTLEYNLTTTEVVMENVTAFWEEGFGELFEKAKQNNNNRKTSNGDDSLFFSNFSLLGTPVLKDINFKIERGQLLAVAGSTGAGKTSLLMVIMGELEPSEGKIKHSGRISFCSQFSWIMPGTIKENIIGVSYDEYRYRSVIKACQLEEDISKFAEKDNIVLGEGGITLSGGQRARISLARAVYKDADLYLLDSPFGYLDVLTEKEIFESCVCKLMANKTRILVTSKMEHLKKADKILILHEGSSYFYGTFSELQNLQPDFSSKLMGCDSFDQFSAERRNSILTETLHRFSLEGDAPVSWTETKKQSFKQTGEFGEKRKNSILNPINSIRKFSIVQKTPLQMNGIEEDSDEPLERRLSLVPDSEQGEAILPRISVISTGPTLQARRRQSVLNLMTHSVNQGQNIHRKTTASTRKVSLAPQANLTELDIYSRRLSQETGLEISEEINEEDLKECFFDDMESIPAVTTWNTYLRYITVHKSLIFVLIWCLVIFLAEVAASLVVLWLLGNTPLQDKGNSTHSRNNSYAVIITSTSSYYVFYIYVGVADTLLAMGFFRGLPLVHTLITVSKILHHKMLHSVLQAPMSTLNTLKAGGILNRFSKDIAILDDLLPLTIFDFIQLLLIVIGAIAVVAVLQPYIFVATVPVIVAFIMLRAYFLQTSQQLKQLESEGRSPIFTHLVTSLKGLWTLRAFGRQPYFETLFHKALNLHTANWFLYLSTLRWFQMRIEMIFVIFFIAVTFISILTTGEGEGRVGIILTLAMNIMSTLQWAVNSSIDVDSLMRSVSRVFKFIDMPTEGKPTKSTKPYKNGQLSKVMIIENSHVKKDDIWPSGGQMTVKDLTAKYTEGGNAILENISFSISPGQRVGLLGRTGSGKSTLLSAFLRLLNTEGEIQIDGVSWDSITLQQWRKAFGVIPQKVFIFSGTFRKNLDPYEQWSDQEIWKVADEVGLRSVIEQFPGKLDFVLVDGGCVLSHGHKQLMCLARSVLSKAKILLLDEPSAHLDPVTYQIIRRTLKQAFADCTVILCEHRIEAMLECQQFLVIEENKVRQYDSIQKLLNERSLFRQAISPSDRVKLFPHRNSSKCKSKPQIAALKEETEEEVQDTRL

| Ent. A Max Activity (Table 6) | EC50 (Table 6) [nM] | Ent. A Max Activity (Table 7) | EC50 (Table 7) [nM] | Structure (SMILES) |
| --- | --- | --- | --- | --- |
| ++ (++ is 30-60%) | < 1000 |  |  | Cc1cccc(C)c1-c1cc2nc(n1)NS(=O)(=O)c1cccc(c1)CN(Cc1ccccc1)[C@H](CC(C)C)CO2 [Compound 1044] |
|  |  | ++ (++ is 30-60%) | 1000 to 3000 | COc1ccc(CN2C(=O)c3cccc(c3)S(=O)(=O)Nc3nc(cc(-c4c(C)cccc4C)n3)OC[C@H]2C)cc1 [Compound 986] |
|  |  | +++ (+++ is >60%) | < 1000 | Cc1cccc(C)c1-c1cc2nc(n1)NS(=O)(=O)c1cccc(c1)C(=O)N(Cc1ccc(N3CC[C@@H](O)C3)nc1)[C@H](CC(C)C)CO2 [Compound 955] |
|  |  | ++ (++ is 30-60%) | < 1000 | Cc1cccc(C)c1-c1cc2nc(n1)NS(=O)(=O)c1cccc(c1)CN(CCc1ccccc1)[C@H](CC(C)C)CO2 [Compound 1040] |
| +++ (+++ is >60%) | 3000 to 30000 |  |  | Cc1cccc(C)c1-c1cc2nc(n1)NS(=O)(=O)c1cccc(c1)C(=O)N(Cc1ccncc1)CCO2 [Compound 977] |
| + (+ is <30%) |  |  |  | CNCCNCC1CN(C)C(=O)c2cccc(c2)S(=O)(=O)Nc2nc(cc(-c3c(C)cccc3C)n2)O1 (stereo not shown) [Compound 1016] |
| + (+ is <30%) |  |  |  | Cc1cccc(C)c1-c1cc2nc(n1)NS(=O)(=O)c1cccc(c1)C(=O)N(C)C[C@@H](CNCCC(C)(C)C)O2 [Compound 1018] |
|  |  | ++ (++ is 30-60%) | < 1000 | Cc1cccc(C)c1-c1cc2nc(n1)NS(=O)(=O)c1cccc(c1)CN(Cc1ccccc1OCc1ccccc1)[C@H](CC(C)C)CO2 [Compound 1037] |
|  |  | +++ (+++ is >60%) | < 1000 | Cc1cccc(C)c1-c1cc2nc(n1)NS(=O)(=O)c1cccc(c1)C(=O)N(Cc1ccc(N(C)CCN(C)C)nc1)[C@H](CC(C)C)CO2 [Compound 943] |
| +++ (+++ is >60%) | 1000 to 3000 |  |  | Cc1cccc(C)c1-c1cc2nc(n1)NS(=O)(=O)c1cccc(c1)C(=O)N(Cc1ccc(=O)[nH]c1)[C@H](CC(C)C)CO2 [Compound 1109] |
|  |  | +++ (+++ is >60%) | < 1000 | Cc1cccc(C)c1-c1cc2nc(n1)NS(=O)(=O)c1cccc(c1)C(=O)N(Cc1ccc(N3CCC(F)CC3)nc1)[C@H](CC(C)C)CO2 [Compound 973] |
|  |  | ++ (++ is 30-60%) | 1000 to 3000 | Cc1cccc(C)c1-c1cc2nc(n1)NS(=O)(=O)c1cccc(c1)CN(C(=O)Cc1ccccc1)[C@H](CC(C)C)CO2 [Compound 1051] |
|  |  | +++ (+++ is >60%) | < 1000 | Cc1cccc(C)c1-c1cc2nc(n1)NS(=O)(=O)c1cccc(c1)C(=O)N(Cc1ccc(N3CCC[C@H](O)C3)nc1)[C@H](CC(C)C)CO2 [Compound 962] |
|  |  | +++ (+++ is >60%) | < 1000 | Cc1cccc(C)c1-c1cc2nc(n1)NS(=O)(=O)c1cccc(c1)C(=O)N(Cc1ccc(N3CCC(N(C)C)CC3)nc1)[C@H](CC(C)C)CO2 [Compound 945] |
|  |  | ++ (++ is 30-60%) | < 1000 | Cc1cccc(C)c1-c1cc2nc(n1)NS(=O)(=O)c1cccc(c1)CN(Cc1cnc(C3CCCCC3)nc1)[C@H](CC(C)C)CO2 [Compound 1033] |

Second part, the compound before the results:

| Structure (SMILES) | Ent. A Max Activity (Table 6) | EC50 (Table 6) [nM] | Ent. A Max Activity (Table 7) | EC50 (Table 7) [nM] |
| --- | --- | --- | --- | --- |
| COc1ccccc1CN1C(=O)c2cccc(c2)S(=O)(=O)Nc2nc(cc(-c3c(C)cccc3C)n2)OC[C@H]1CC(C)C [Compound 349] | +++ (+++ is >60%) | < 1000 |  |  |
| Cc1cccc(C)c1-c1cc2nc(n1)NS(=O)(=O)c1cccc(c1)C(=O)N(Cc1ccc(OCCN(C)C)nc1)[C@H](CC(C)C)CO2 [Compound 942] |  |  | +++ (+++ is >60%) | < 1000 |
| Cc1cccc(C)c1-c1cc2nc(n1)NS(=O)(=O)c1cccc(c1)C(=O)N(Cc1ccccc1)[C@H](CC(C)C)CO2 [Compound 862] | +++ (+++ is >60%) | < 1000 |  |  |
| Cc1cccc(C)c1-c1cc2nc(n1)NS(=O)(=O)c1cccc(c1)C(=O)N(Cc1cccc(C#N)c1)[C@H](CC(C)C)CO2 [Compound 859] | +++ (+++ is >60%) | < 1000 |  |  |
| Cc1cccc(C)c1-c1cc2nc(n1)NS(=O)(=O)c1cccc(c1)C(=O)N(CC1CC3C=C[C@@H]1C3)[C@H](CC(C)C)CO2 (stereo partly shown) [Compound 351] | +++ (+++ is >60%) | < 1000 |  |  |
| Cc1cccc(C)c1-c1cc2nc(n1)NS(=O)(=O)c1cccc(c1)C(=O)N(CC1CCOCC1)[C@H](CC(C)C)CO2 [Compound 352] | +++ (+++ is >60%) | < 1000 |  |  |
| Cc1cccc(C)c1-c1cc2nc(n1)NS(=O)(=O)c1cccc(c1)C(=O)N(Cc1ccccc1)[C@H](CCC1(C(F)(F)F)CC1)CO2 [Compound 853] | ++ (++ is 30-60%) | < 1000 |  |  |
| Cc1cccc(C)c1-c1cc2nc(n1)NS(=O)(=O)c1cccc(c1)C(=O)N(CCC1CCOCC1)[C@H](CC1(C(F)(F)F)CC1)CO2 [Compound 680] |  |  | + (+ is <30%) | < 1000 |
| Cc1cccc(C)c1-c1cc2nc(n1)NS(=O)(=O)c1cccc(c1)C(=O)N(C)CC(c1ccc(C3CC3)cc1)O2 (stereo not shown) [Compound 674] | ++ (++ is 30-60%) | < 1000 |  |  |
| Cc1cccc(C)c1-c1cc2nc(n1)NS(=O)(=O)c1cccc(c1)CN(C(=O)CC1CCOCC1)[C@H](CC(C)C)CO2 [Compound 45, (11R)-6-(2,6-Dimethylphenyl)-11-(2-methylpropyl)-12-[2-(oxan-4-yl)acetyl]-9-oxa-2λ^6-thia-3,5,12,19-tetraazatricyclo[12.3.1.14,8]nonadeca-1(17),4,6,8(19),14(18),15-hexaene-2,2-dione] |  |  | + (+ is <30%) |  |
| Cc1cccc(C)c1-c1cc2nc(n1)NS(=O)(=O)c1cccc(c1)C(=O)N(CCOC(C)(C)C)[C@H](CC(C)C)CO2 [Compound 427] | +++ (+++ is >60%) | < 1000 |  |  |
| Cc1cccc(C)c1-c1cc2nc(n1)NS(=O)(=O)c1cccc(c1)C(=O)N(C)CC(CN1C3CCC[C@H]1CC3)O2 (stereo partly shown) [Compound 1015] | + (+ is <30%) |  |  |  |
| Cc1cccc(C)c1-c1cc2nc(n1)NS(=O)(=O)c1cccc(c1)C(=O)N(CC1CC13CCOCC3)[C@H](CC(C)C)CO2 (stereo partly shown) [Compound 416] |  |  | +++ (+++ is >60%) | < 1000 |
| Cc1cccc(C)c1-c1cc2nc(n1)NS(=O)(=O)c1cccc(c1)C(=O)N(CC1CC1)[C@H](CC(C)C)CO2 [Compound 366] | +++ (+++ is >60%) | < 1000 |  |  |
| Cc1cccc(C)c1-c1cc2nc(n1)NS(=O)(=O)c1cccc(c1)C(=O)N(Cc1ccc(N3CCN(C)CC3)nc1)[C@H](CC(C)C)CO2 [Compound 854] | +++ (+++ is >60%) | < 1000 |  |  |
| Cc1cccc(C)c1-c1cc2nc(n1)NS(=O)(=O)c1cccc(c1)C(=O)N(C[C@@H](O)CO)[C@H](CC(C)C)CO2 [Compound 38, (11R)-12-[(2R)-2,3-Dihydroxypropyl]-6-(2,6-dimethylphenyl)-11-(2-methylpropyl)-9-oxa-2λ^6-thia-3,5,12,19-tetraazatricyclo[12.3.1.14,8]nonadeca-1(17),4(19),5,7,14(18),15-hexaene-2,2,13-trione] | +++ (+++ is >60%) | < 1000 |  |  |
| Cc1cccc(C)c1-c1cc2nc(n1)NS(=O)(=O)c1cccc(c1)C(=O)N(CCOCc1ccccc1)[C@H](CC(C)C)CO2 [Compound 81, (11R)-12-[2-(Benzyloxy)ethyl]-6-(2,6-dimethylphenyl)-11-(2-methylpropyl)-9-oxa-2λ^6-thia-3,5,12,19-tetraazatricyclo[12.3.1.14,8]nonadeca-1(17),4,6,8(19),14(18),15-hexaene-2,2,13-trione] | +++ (+++ is >60%) | < 1000 |  |  |
| Cc1cccc(C)c1-c1cc2nc(n1)NS(=O)(=O)c1cccc(c1)C(=O)N(Cc1ccccc1C#N)[C@H](CC(C)C)CO2 [Compound 861] | ++ (++ is 30-60%) | 1000 to 3000 |  |  |
| Cc1cccc(C)c1-c1cc2nc(n1)NS(=O)(=O)c1cccc(c1)C(=O)N(C)C[C@H](c1ccccc1)O2 [Compound 672] | ++ (++ is 30-60%) | < 1000 |  |  |
| Cc1cccc(C)c1-c1cc2nc(n1)NS(=O)(=O)c1cccc(c1)C(=O)N(Cc1ccc(C(C)(C)C)cc1)[C@H](CC(C)C)CO2 [Compound 425] | +++ (+++ is >60%) | < 1000 |  |  |
| Cc1cccc(C)c1-c1cc2nc(n1)NS(=O)(=O)c1cccc(c1)C(=O)N(CCC(C)C)CC(c1ccc(C(C)(C)C)cc1)O2 (stereo not shown) [Compound 341] | ++ (++ is 30-60%) | 1000 to 3000 |  |  |
| Cc1cccc(C)c1-c1cc2nc(n1)NS(=O)(=O)c1cccc(c1)C(=O)N(Cc1ccc(C(=O)O)nc1)[C@H](CC(C)C)CO2 [Compound 94, 5-{[(11R)-6-(2,6-dimethylphenyl)-11-(2-methylpropyl)-2,2,13-trioxo-9-oxa-2λ^6-thia-3,5,12,19-tetraazatricyclo[12.3.1.14,8]nonadeca-1(18),4(19),5,7,14,16-hexaen-12-yl]methyl}pyridine-2-carboxylic acid] |  |  | +++ (+++ is >60%) | 1000 to 3000 |
| Cc1cccc(C)c1-c1cc2nc(n1)NS(=O)(=O)c1cccc(c1)C(=O)N(Cc1ccn(C)n1)[C@H](CC(C)C)CO2 [Compound 855] | +++ (+++ is >60%) | < 1000 |  |  |
| Cc1cccc(C)c1-c1cc2nc(n1)NS(=O)(=O)c1cccc(c1)C(=O)N(C)CC(c1ccc(C3=CCOCC3)cc1)O2 (stereo not shown) [Compound 671] |  |  | +++ (+++ is >60%) | < 1000 |
| Cc1cccc(C)c1-c1cc2nc(n1)NS(=O)(=O)c1cccc(c1)C(=O)N(CC1CCCN1C(=O)OC(C)(C)C)[C@H](CC(C)C)CO2 (stereo partly shown) [Compound 346] | +++ (+++ is >60%) | < 1000 |  |  |

Source: patent publication US20240150377A1, “MODULATORS OF CYSTIC FIBROSIS TRANSMEMBRANE CONDUCTANCE REGULATOR” (VERTEX PHARMACEUTICALS INCORPORATED, priority 2020, published 2024)
